Reference: US8183383B2, “Protein tyrosine phosphatase 1B inhibitor, preparation methods and uses thereof” (Shanghai Institute of Materia Medica, Chinese Academy of …, priority 2007, dated 2012)

Target: T1, hPTP1B (Homo sapiens, UniProt P18031)
T1 construct: The catalytic structural domain of hPTP1B was expressed in E-coli system by a molecular biology protocol; made in house; host or cells: E. coli
T1 sequence (P18031 3-277 limits assumed): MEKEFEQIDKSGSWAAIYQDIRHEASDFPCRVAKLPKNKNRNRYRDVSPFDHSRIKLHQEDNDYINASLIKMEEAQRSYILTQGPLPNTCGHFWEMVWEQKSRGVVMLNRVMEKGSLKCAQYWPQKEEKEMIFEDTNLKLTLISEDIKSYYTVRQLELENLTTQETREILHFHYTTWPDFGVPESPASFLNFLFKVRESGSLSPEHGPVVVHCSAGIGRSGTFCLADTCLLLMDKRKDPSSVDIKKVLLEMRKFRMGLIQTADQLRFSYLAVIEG
Assay: PTP1B inhibition test (pNPP hydrolysis, absorption at 410 nm)
Type: biochemical
Conditions: recombinant hPTP1B catalytic domain 40 nM, 2 mM pNPP, pH 7.0, 2% DMSO; read-out: IC50(μM), inhibitory activity of the test compounds against PTP1B
Text: 1) Test principle: The catalytic structural domain of hPTP1B was expressed in E-coli system by a molecular biology protocol. The purified hPTP1B recombinant protein can hydrolyze the phosphoester linkage of the pNPP substrate to obtain a product which has a strong light absorption at 410 nm. Therefore, the variation of the enzyme activity and the inhibitory activity of a compound against the enzyme can be observed by directly monitoring the changes in the light absorption at 410 nm. A typical activity assay system is as follows: 50 mM Mops, PH 7.0, 1 mM EDTA, 2 mM DTT, 2 mM PNPP, 2% DMSO, 40 nM hPTP1B.
2) Measuring Index: The light absorption was dynamically measured at 410 nm for 3 min. The slope of the first-order reaction of the dynamic curve thereof was considered as the activity index of the enzymes.
3) Measurement: • 1. 1 mg sample was dissolved in 200 μL DMSO. To each wall of the A2-H11 of a 96-wells polypropylene plate, 20 μL of the solution was added, followed by addition of 80 μL DMSO. The plate was used as mother plate. • 2. To each corresponding wall of a 96-wells polypropylene plate, 2 μL of sample was added with a Biomek 2000 automation workstation. The plate was used as daughter plate for screening. • 3. To each wall of A1-D1 and E12-H12, 2 μL, DMSO was added. These walls were regarded as 100% of enzyme activity for control. • 4. To each wall of A12-D12 and E1-H1, 2 μL positive control with different concentrations (four concentrations prepared by double-fold dilution from […]) was added respectively. • 5. To each wall of A1-H12, 88 μL Assay mix was added respectively. • 6. To each wall of A1-H12, 10 μL hPTP1B was added respectively. • 7. The light absorption was measured at 410 nm for 3 min on a SpectraMAX 340 spectrometer. • 8. Exporting the output into a TXT file, and opening the file with Excel. The average of the Vmax values of A1-D1 and E12-H12 was considered as 100% of enzyme activity.
4) Results: The screening results were the % inhibitory rate against the enzyme when the compound concentration was 20 μg/mL. 1050 value was calculated according to a conventional screening when the inhibitory rate exceeded 50%. The […] value of the positive control, 4-[4-(4-oxalyl-phenoxymethyl)-benzyloxy]-phenyl-oxo-acetic acid, is 5.4 μM [Christopher T. Seto, et al. J. Med. Chem., 2002, 45, 3946-3952].

SMILES	IC50
CCOC(=O)/C(C)=C\C(C)=C\c1csc([C@H](Cc2ccc(OCc3ccccc3)cc2)NC(=O)CC2CCCCC2)n1 [WY586s]	2.48 µM
CCOC(=O)/C(C)=C\C(C)=C\c1csc([C@H](Cc2ccc(OCc3ccccc3)cc2)NC(=O)C(=O)C2CCCCC2)n1 [WY600]	3.44 µM
CCOC(=O)/C(C)=C\C(C)=C\c1csc([C@H](Cc2ccc(O)cc2)NC(=O)C2CCCCC2)n1 [WY482h]	27.8 µM
C/C(=C/C(C)=C/c1csc([C@H](Cc2ccc(OCc3ccccc3)cc2)NC(=O)C2CCCCC2)n1)C(=O)O [WY544a]	4.4 µM
C/C(=C/C(C)=C/c1csc([C@H](Cc2ccc(OCc3ccccc3)cc2)NC(=O)CC2CCCCC2)n1)C(=O)O [WY558a]	9.32 µM
CCOC(=O)/C(C)=C\C(C)=C\c1csc([C@H](Cc2ccc(OCc3ccccc3)cc2)NC(=O)C(=O)C2CCCO2)n1 (some centres unmarked) [WY588]	10.4 µM
CCOC(=O)/C(C)=C\C(C)=C\c1csc([C@H](Cc2ccc(OCc3ccccc3)cc2)NC(=O)COC(C)=O)n1 [WY562s]	> 40 µM
CCOC(=O)/C(C)=C\C(C)=C\c1csc([C@H](Cc2ccc(OCc3ccccc3)cc2)NC(=O)C2CC2)n1 [WY530s]	> 35 µM
CCOC(=O)/C(C)=C\C(C)=C\c1csc([C@H](Cc2ccc(OCc3ccccc3)cc2)NC(=O)c2ccc(OC)cc2)n1 [WY596s]	44.8 µM
CCOC(=O)/C(C)=C/C(C)=C/c1csc([C@H](Cc2ccc(OCc3ccccc3)cc2)NC(=O)C2CCCCC2)n1 [WY572-2]	6.38 µM
CCCCOc1ccc(C[C@H](NC(=O)C2CCCCC2)c2nc(/C=C(C)/C=C(/C)C(=O)OCC)cs2)cc1 [WY538h]	22.1 µM
CCOC(=O)/C(C)=C\C(C)=C\c1csc([C@H](Cc2ccc(OCc3ccc(OC)cc3)cc2)NC(=O)C2CCCCC2)n1 [WY602h]	25.6 µM
CCOC(=O)/C(C)=C\C(C)=C\c1csc([C@H](Cc2ccc(OCc3ccccc3)cc2)NC(=O)c2ccccc2)n1 [WY566s]	15.2 µM
CCOC(=O)/C(C)=C\C(C)=C\c1csc([C@H](Cc2ccc(OCc3ccccc3)cc2)NC(=O)c2cc3ccccc3s2)n1 [WY622s]	25.6 µM
CCOC(=O)/C(C)=C\C(C)=C\c1csc([C@H](Cc2ccc(OCCO)cc2)NC(=O)C2CCCCC2)n1 [WY526h]	> 40 µM
CC(=C\c1csc([C@H](Cc2ccc(OCc3ccccc3)cc2)NC(=O)C2CCCCC2)n1)/C=C(\C)C(=O)O [WY544-2]	11.3 µM
CCOC(=O)/C(C)=C\C(C)=C\c1csc([C@H](Cc2ccc(OCc3ccccc3)cc2)NC(=O)c2ccc(F)cc2)n1 [WY584s]	> 35 µM
CCOC(=O)/C(C)=C\C(C)=C\c1csc([C@H](Cc2ccc(OCc3ccccc3)cc2)NC(=O)C(=O)c2ccccc2)n1 [WY594]	6.92 µM
CCOC(=O)/C(C)=C\C(C)=C\c1csc([C@H](Cc2ccc(OCc3ccncc3)cc2)NC(=O)C2CCCCC2)n1 [WY573h4]	> 40 µM
C/C(=C/C(C)=C/c1nc([C@H](Cc2ccc(OCc3ccccc3)cc2)NC(=O)CC2CCCCC2)sc1-c1ccccc1)C(=O)O [WY634a]	3.97 µM
CCOC(=O)/C(C)=C\C(C)=C\c1csc([C@H](Cc2ccc(OCc3ccccc3)cc2)NC(=O)C(=O)C2CCC2)n1 [WY572]	8.52 µM

System: insulin receptors (IRs) in CHO/IR cells
Assay: Effect on the phosphorylation level of insulin receptors in CHO/IR cells
Type: cell-based
Conditions: CHO/IR cells, 0.21, 0.43, 0.85, 1.70 μM, 10 nM insulin stimulation, FIG. 1
Text: 1). Experimental principle: The phosphorylation levels of insulin receptors (IRs) in cells sensitive to insulin are regulated by PTK and PTPase. PTP1B is a negative regulator during the process. It can be evaluated by measuring the phosphorylation level of IRs in CHO/IR cells whether the PTP inhibitor has entered into the cells and how its effect in cells is.
2). Experimental Protocol: • 1. Cell inoculation: Cells in good growth condition were inoculated into a 6-well plate with a density of 3-4×10^5 cells/well. To each well was added 2 mL F12 culture media containing 10% FBS. • 2. Starvation: After cultivation for 24 h, to each well was added 2 mL serum-free F12 culture media. Then the plate was cultivated overnight. • 3. Administration: After removing the old culture media, to each well was added 0.9 mLserum-free F12 culture media containing the test compound, wherein 1 mM Na3VO4 and 0.1% DMSO were used as positive and negative control, respectively. The plate was incubated for 2-4 h. • 4. Insulin stimulation: To each well was added 100 μL 100 nM insulin solution so that the final concentration was 10 nM. The reaction was carried out for 10 min. • 5. Sample collection: After discarding the culture media, to each well was added 150 μL×1 loading buffer. […]
3). Experimental results: The experiment evaluated the effect of WY586s on the phosphorylation levels of insulin receptors in CHO/IR cells. […]

SMILES	phosphorylation level of IR (p-IR)
CCOC(=O)/C(C)=C\C(C)=C\c1csc([C@H](Cc2ccc(OCc3ccccc3)cc2)NC(=O)CC2CCCCC2)n1 [WY586s]	significantly increases with the increase of the concentration of the inhibitor

Target: T1, hPTP1B
Assay: not given
Conditions: positive control; literature reference Seto et al. J. Med. Chem. 2002; cited from earlier work

SMILES	IC50
O=C(O)C(=O)c1ccc(OCc2ccc(COc3ccc(C(=O)C(=O)O)cc3)cc2)cc1 [4-[4-(4-oxalyl-phenoxymethyl)-benzyloxy]-phenyl-oxo-acetic acid]	5.4 µM
